Patent US20240398813A1, “PHARMACEUTICAL COMPOSITION FOR PREVENTING OR TREATING OVERACTIVE BLADDER” (GWANGJU INSTITUTE OF SCIENCE AND TECHNOLOGY, priority 2021, published 2024)

Key:
[1] = target: T1, BKCa channels (rat KCNMA, rSlo α) (Rattus norvegicus, UniProt Q62976); assay: Macroscopic current recording, outside-out patch clamp, BKCa channels expressed in Xenopus oocytes; format: cell-based
T1 construct: expressed in transfected cells; host or cells: Xenopus laevis oocytes injected with cRNA
Source text: (§1) The complete coding sequence (CDS) of each of rat KCNMA (rSlo α) (GenBank AF135265.1), KCNMB1 (rSlo 01) (GenBank FJ154955.1) and KCNMB4 (rSlo β4) (GenBank AY028605) was subcloned into pNBC2.0 or pNBC2.0. These vectors were designed to be expressed in Xenopus oocytes (Ha, T. S., Lim, H. H., Lee, G. E., Kim, Y. C., & Park, C. S. (2006). Electrophysiological characterization of benzofuroindole-induced potentiation of large-conductance Ca2+-activated K+ channels. Mol Pharmacol, 69(3), 1007-1014). The plasmid was linearized by NotI and complementary RNA (cRNA) was synthesized using the Ambion T7 mMESSAGE mMACHINE kit (Invitrogen, Carlsbad, CA, USA) according to the manufacturer's instructions. Xenopus laevis (KXRCR000001) was obtained from the Korea Xenopus Resource Center for Research (Chuncheon-si, Gangwon-do, Korea). Stage V-VI oocytes were surgically extracted from the ovarian lobes of X. laevis. A follicular cell layer was removed by culturing in Ca^2+-free oocyte Ringer's medium (86 mM NaCl, 1.5 mM KCl, 2 mM MgCl2 and 10 mM HEPES, pH 7.6) containing collagenase for 1.5 hours at room temperature. Oocytes without follicular layer were washed with ND-96 medium (96 mM NaCl, 2 mM KCl, 1.8 mM CaCl2), 1 mM MgCl2, 5 mM HEPES, […] gentamicin, pH 7.6). The prepared oocytes were stabilized overnight at 18° C. cRNA was injected into each oocyte (50 ng per oocyte) using a microdispenser (Drummond Scientific, Broomall, PA, USA). For co-expression of the β subunits, cRNA was mixed at a molar ratio of 1:12 (α:β) to induce sufficient co-assembly of the R subunits. After injection of cRNA, the oocytes were cultured in ND-96 medium for 1-3 days at 18° C. Before recording macroscopic currents, vitelline membranes of the oocytes were completely removed using fine forceps.
All macroscopic current recordings in the BKCa channels were performed using the gigaohm-seal patch-clamp method in an outside-out configuration (Ha et al., 2006). A patch pipette was made of borosilicate glass (WPI, Sarasota, FL, USA) and fire-polished by a resistance of 3-5 MQ. Ion currents were amplified using an Axopatch 200B amplifier (Molecular Devices). The currents were low-pass filtered at 1 kHz using a four-pole Bessel filter and digitized at a rate of 10 or 20 points/ms using a Digidata 1200A interface (Molecular Devices). The BKCa channels were activated by repeated voltage clamps at +100 mV or by voltage clamp pulses ranging from −80 to +200 mV with an increment of 10 mV. The resting potential was maintained at −100 mV. The recording solution contained 116 mM KOH, 4 mM KCl, 10 mM HEPES, and 5 mM EGTA (pH 7.2). The intracellular solution contained 3 μM Ca^2+ in the recording solution (pH 7.0). MaxChelator program was used to calculate the total amount of Ca^2+ to be added to the intracellular solution for obtaining free Ca^2+ at a concentration of 3 μM.
The commercial software Clampex 8.0 (Molecular Device) and Origin 9.1 (OriginLab Corp., Northampton, MA, USA) were used for data analysis and fitting of the macroscopic currents. A conductance-voltage (G-V) curve obtained from the external current was fitted by the Boltzmann equation [y=(Gmax−Gmin)/{1+exp[(V1/2−x)/k]}+Gmin]. Wherein k is RT/zF, and wherein R is a gas constant, T is a temperature, F is the Faraday's constant, and z is a gating charge. Gmax is the maximum conductivity and V1/2 is a voltage for half maximum conductivity. The concentration-dependent V1/2 shift was fitted by the Hill equation [y=AVi/2,max x^n/(EC50^n+x^n)]. Wherein ΔV1/2,max is a constant. EC50 is half the apparent maximum effective concentration and n is the Hill coefficient. By definition, the apparent dissociation constant KD was obtained by EC50^n. The association time constant (r association) was obtained by fitting the exponential equation [y=A exp(−x/τ)+C]. Wherein A and C are constants and τ is the time to reach (1−1/e) ( ? 63%) of the maximum current level. […]

[2] = target: T2, BKCa channels co-expressed with the β1 subunit (rSlo α + KCNMB1) (Rattus norvegicus, UniProt Q62976); assay: Macroscopic current recording, BKCa channels co-expressed with β1 subunits in Xenopus oocytes; format: cell-based; settings: 10 μM
T2 construct: expressed in transfected cells; host or cells: Xenopus laevis oocytes, cRNA alpha:beta 1:12
T2 sequence (Q62976 whole entry): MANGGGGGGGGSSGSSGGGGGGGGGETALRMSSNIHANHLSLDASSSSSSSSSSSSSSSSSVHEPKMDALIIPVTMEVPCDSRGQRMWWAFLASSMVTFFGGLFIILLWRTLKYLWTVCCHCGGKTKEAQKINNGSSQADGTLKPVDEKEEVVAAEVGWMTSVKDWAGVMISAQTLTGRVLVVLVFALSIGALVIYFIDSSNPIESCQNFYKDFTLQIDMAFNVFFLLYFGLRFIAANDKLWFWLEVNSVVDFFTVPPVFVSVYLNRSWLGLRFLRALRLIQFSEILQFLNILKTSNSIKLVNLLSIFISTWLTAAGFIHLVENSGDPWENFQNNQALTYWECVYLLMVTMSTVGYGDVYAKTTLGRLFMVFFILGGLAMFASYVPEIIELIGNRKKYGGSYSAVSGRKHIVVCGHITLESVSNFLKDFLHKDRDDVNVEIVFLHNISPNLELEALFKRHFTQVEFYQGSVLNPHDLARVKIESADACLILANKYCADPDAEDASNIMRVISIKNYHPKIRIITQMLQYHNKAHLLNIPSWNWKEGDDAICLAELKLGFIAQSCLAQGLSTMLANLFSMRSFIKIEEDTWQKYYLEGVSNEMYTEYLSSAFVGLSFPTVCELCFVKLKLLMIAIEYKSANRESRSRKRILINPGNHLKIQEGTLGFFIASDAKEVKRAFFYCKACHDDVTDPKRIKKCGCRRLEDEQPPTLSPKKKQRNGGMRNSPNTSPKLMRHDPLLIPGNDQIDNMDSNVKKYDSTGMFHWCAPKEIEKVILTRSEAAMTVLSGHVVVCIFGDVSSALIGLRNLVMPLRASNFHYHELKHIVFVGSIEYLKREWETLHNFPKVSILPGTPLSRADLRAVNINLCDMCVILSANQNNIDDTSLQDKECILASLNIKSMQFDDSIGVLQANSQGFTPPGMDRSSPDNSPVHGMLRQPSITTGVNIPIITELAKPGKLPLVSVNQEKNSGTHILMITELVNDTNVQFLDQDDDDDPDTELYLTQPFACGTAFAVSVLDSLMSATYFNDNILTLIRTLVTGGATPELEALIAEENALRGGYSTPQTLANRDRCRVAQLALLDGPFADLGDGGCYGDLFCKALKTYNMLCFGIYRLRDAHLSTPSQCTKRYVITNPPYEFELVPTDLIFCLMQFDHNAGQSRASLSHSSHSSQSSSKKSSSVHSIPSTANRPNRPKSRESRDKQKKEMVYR
T2 sequence (P97678 whole entry partner): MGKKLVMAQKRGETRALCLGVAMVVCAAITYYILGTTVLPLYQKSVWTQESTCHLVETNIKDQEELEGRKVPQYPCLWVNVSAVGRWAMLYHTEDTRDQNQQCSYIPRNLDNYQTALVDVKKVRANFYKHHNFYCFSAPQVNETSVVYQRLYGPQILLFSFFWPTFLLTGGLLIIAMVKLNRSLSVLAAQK
Source text: as §1
(§2) All macroscopic current recordings in the BKCa channels were performed using the gigaohm-seal patch-clamp method in an outside-out configuration (Ha et al., 2006). A patch pipette was made of borosilicate glass (WPI, Sarasota, FL, USA) and fire-polished by a resistance of 3-5 MQ. […]

[3] = target: T3, BKCa channels co-expressed with the β4 subunits (rSlo α + KCNMB4) (Rattus norvegicus, UniProt Q62976); assay: Macroscopic current recording, BKCa channels co-expressed with β4 subunits in Xenopus oocytes; format: cell-based; settings: 10 μM
T3 construct: expressed in transfected cells; host or cells: Xenopus laevis oocytes, cRNA alpha:beta 1:12
T3 sequence (Q62976 whole entry): as the sequence (Q62976 whole entry) above
T3 sequence (Q9ESK8 whole entry partner): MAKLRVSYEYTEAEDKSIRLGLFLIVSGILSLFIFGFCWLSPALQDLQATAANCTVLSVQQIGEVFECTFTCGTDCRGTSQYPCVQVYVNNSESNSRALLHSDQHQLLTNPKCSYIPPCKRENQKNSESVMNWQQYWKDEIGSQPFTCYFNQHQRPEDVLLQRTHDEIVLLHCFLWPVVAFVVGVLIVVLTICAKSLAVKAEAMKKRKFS
Source text: as §1, §2

[4] = target: T4, hyperactive mutant BKCa channels (hSlo G803D/N806K) stably expressed in AD 293 cells (Homo sapiens, UniProt Q12791, G856D/N859K); assay: Cell-based fluorescence assay (FluxOR Potassium Ion Channel Assay) of BKCa channel activation; settings: compounds at 5 μM; n=3; vehicle 0.26
T4 construct: expressed in transfected cells
T4 sequence (Q12791 whole entry G856D/N859K): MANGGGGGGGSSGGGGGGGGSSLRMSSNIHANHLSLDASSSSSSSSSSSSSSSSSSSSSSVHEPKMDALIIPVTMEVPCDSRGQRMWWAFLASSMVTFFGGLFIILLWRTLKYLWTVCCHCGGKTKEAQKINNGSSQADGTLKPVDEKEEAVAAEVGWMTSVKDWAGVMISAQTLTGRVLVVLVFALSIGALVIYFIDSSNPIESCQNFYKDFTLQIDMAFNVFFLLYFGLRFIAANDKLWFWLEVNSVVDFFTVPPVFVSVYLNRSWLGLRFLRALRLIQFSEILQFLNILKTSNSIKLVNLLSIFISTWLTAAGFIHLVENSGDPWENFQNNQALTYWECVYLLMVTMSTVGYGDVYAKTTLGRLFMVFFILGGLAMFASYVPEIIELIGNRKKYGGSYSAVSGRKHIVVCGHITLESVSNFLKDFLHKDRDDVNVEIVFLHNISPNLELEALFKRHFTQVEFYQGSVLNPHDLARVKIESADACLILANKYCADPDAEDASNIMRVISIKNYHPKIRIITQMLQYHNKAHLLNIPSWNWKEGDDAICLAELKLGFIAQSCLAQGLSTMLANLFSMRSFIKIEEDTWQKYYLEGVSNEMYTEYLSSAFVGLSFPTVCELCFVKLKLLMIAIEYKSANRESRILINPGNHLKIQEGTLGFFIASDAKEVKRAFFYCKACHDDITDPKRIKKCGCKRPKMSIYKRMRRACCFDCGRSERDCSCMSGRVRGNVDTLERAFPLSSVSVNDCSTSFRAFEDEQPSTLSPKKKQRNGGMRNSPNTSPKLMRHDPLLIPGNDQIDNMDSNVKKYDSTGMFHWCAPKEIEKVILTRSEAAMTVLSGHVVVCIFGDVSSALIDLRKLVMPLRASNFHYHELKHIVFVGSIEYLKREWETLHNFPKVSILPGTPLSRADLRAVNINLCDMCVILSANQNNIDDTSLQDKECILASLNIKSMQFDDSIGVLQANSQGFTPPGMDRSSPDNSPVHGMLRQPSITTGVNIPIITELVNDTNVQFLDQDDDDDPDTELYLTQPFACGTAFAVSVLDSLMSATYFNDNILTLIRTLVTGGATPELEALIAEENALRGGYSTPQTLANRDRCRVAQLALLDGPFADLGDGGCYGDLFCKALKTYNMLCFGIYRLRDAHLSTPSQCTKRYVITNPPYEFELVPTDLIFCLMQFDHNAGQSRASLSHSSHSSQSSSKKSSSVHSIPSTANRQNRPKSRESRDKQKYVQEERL

[5] = washout after 10 μM, double exponential fit

T1 sequence (Q62976 whole entry): as the sequence (Q62976 whole entry) above

For `Cc1cccc(NC(=O)c2sc(=S)n3c2[nH]c(=O)c2cc(Br)ccc23)c1` [TTQC-1, 7-bromo-5-oxo-1-thioxo-N-(m-tolyl)-4,5-dihydro-1H-thiazolo[3,4-a]quinazoline-3-carboxamide], the “effect on channel activation time constant (τ activation)” value ([1]; 10 μM) was “did not show significant changes”, the “association time constant (τ association)” value ([1]; 10 μM, +100 mV pulses, 3 μM intracellular Ca2+) was 11.7 ± 1.77 s and the “increase of channel deactivation time constant (τ deactivation)” value ([1]; 10 μM, at +200 mV) was 5.3 times. For the same compound, the “half-activation voltage (V1/2)” value ([1]; 30 μM) was 37.9±7.50 mV, the “increase of maximum conductance (Gmax) compared to vehicle (G0max)” value ([1]; 30 μM) was 1.4±0.11 times and the EC50 ([1]; 0.1-30 μM, 3 μM intracellular Ca2+, read-out: apparent EC50 of V1/2 shift (Hill equation)) was 2800 nM. For the same compound, the Hill coefficient n ([1]; fit of V1/2 shift) was 2.0, the “Afast (amplitude of fast dissociation component)” value ([1]; washout after 10 μM) was 0.49±0.064 and the “Aslow (amplitude of slow dissociation component)” value ([1]; washout after 10 μM) was 0.53±0.054. The “dissociation time constant, fast component” value [1, 5] was 7.8 ± 1.10 s, the “dissociation time constant, slow component” value [1, 5] was 136.2 ± 11.24 s and the “effect on τ activation” value [2] was “changed the τ activation only at 190 mV”. For the same compound, the “increase of τ deactivation” value ([2]; at 180 mV) was 4.6 times, the “shift of G-V curve to the left” value ([2]; β1 co-expressed) was 23.0±2.67 mV and the “effect on τ activation” value [3] was “did not significantly affect”. For the same compound, the “increase of τ deactivation” value ([3]; at 170 mV) was 3.7 times, the “shift of G-V curve to the left” value ([3]; β4 co-expressed) was 7.12±0.65 mV and the “Activity (ΔRFU normalized by activities of LDD175)” value [4] was 1.06.
